Reference: article PMC10312377, “A conserved epitope in VAR2CSA is targeted by a cross-reactive antibody originating from Plasmodium vivax Duffy binding protein” (Frontiers in Cellular and Infection Microbiology, 2023)

What was measured:
[1] = tested on: P. falciparum CS2 infected erythrocytes (VAR2CSA-expressing) binding to CSA; assay: Inhibition of binding assay (IBA), static binding of IEs to CSA; assay type: cell-based; conditions: CS2 IEs preincubated with soluble CSA 250 µg/ml, positive control; relative to AE-BSA control
Description: CRP1 was conjugated to BSA (as carrier protein) at the N-terminus through an azide-alkyne cycloaddition and outsourced commercially to ProSci (California, USA) for rat immunizations. As controls, an unrelated peptide conjugate (P5-BSA), the PAMVAC vaccine candidate (ID1-ID2a region from VAR2CSA) and the carrier protein conjugated to the linker (azido-ethanol (AE-BSA)) were included. Briefly, two female Sprague Dawley rats (~11 weeks old) were immunized intraperitoneally on day 0 with 75 µg of each antigen formulated in PBS and Complete Freund’s Adjuvant (CFA) followed by 3 booster immunizations with 50 µg of antigen in Incomplete Freund’s Adjuvant at 2-week intervals. Sera were collected 14 days after the final boost.
P. falciparum CS2 parasites were cultured in vitro as described ([Trager and Jensen, 1976]). Parasites were selected for adhering to CSA every 3-4 weeks to enrich for parasites expressing VAR2CSA. […]
The ability of anti-CRP1 IgG to block parasite binding to CSA in vitro was assessed by a static binding assay ([Gnidehou et al., 2014]). […] After washing, spots were fixed with glutaraldehyde and stained with Giemsa before imaging using a EVOS FL Auto microscope (Invitrogen) and the number of parasites bound per spot was analyzed using ImageJ. Percent inhibition of binding was calculated relative to the counts from the AE-BSA control.

[2] = tested on: 3D10 MAb (raised against PvDBP region II); assay: Indirect ELISA, titration of 3D10 against coated peptides; assay type: binding, mouse; conditions: for 3D10 recognition of peptide by ELISA: peptide coated at 5 µg/ml, titration of 3D10, OD relative to isotype control IgG1
Description: (§1) Immunoglobulin G (IgG) reactivity was measured using the enzyme-linked immunosorbent assay (ELISA). Briefly, 96-well Maxisorb plates (catalogue no. 439454; Thermo Fisher Scientific) were coated with synthetic peptides and recombinant full-length VAR2CSA diluted in 1 x PBS and incubated overnight at 4°C. Coated plates were blocked with 4% bovine serum albumin (BSA, catalogue no. A7906; Sigma-Aldrich) for 1 h at 37°C, then washed once with 1 x PBST (0.1% Tween 20). Plates were incubated with primary antibody for 1 h at room temperature (RT) and washed four times with 1 x PBST. The washed plates were incubated at RT for 1 h with 100 µl of HRP-conjugated secondary antibody (goat anti-human HRP, catalogue no. ab98624, Abcam; goat anti-mouse HRP, catalogue no. 170-6516, Bio-Rad, Mississauga, Canada; goat anti-rat HRP catalogue no. 62-9520). After four washes, 100 µl of 3,3′,5,5′-Tetramethylbenzidine (TMB, catalogue no. T0440; Sigma-Aldrich) were added and the reaction was stopped after 30 mins with an equal volume of H2SO4 (0.5 N). Human sera were screened once, in duplicate. The optical density (OD) values were converted to arbitrary units relative to the positive control sera included on each plate using the formula: AU = ODtest -ODbackground/ODpositive control pool – ODbackground)*100. The positive control pool refers to the OD of a pool of Colombian or Ugandan samples that were seroreactive against the peptides or VAR2CSA, respectively. The background is the OD with secondary antibody alone. The cut-off for seropositivity was based on the mean AU of sera from 12 individual Colombians not exposed to malaria plus 2 standard deviations; data to generate the cut-off are from two independent experiments. Only sera that were above the cut-off for VAR2CSA seropositivity were screened against CRP1 and SD1CLIPS.

[3] = Isothermal titration calorimetry (ITC) of peptides with CSA; assay type: binding, Bovine; conditions: 25°C; for Binding to CSA by ITC: PBS with 0.5% acetonitrile pH 7.4, 50 µM peptide in cell, 1 mM CSA in syringe, 25 injections of 1.5 µl
Description: Bovine tracheal CSA was purchased from Sigma-Aldrich (Cat no C9819). The energetics of the binding of peptides to CSA was performed at 25°C, on a MicroCal PEAQ-ITC calorimeter (Malvern Panalytical, Malvern, USA). For all experiments, samples were prepared in PBS containing 0.5% acetonitrile, pH 7.4. The reference cell was loaded with autoclaved milli-Q ultra-pure water; the sample cell was loaded with peptide solution (50 µM) and the syringe was filled with 1 mM CSA solution (based on a molecular weight of 50 kDa). In each titration, 25 injections of 1.5 μl of the CSA solution were made into the sample cell. A spacing of 150 s between each injection was applied to enable the system to reach equilibrium. The ITC data were analyzed with MicroCal-PEAQ-ITC Analysis Software v1.41. Binding parameters such as the ΔH (enthalpy change) and the ΔS (entropy change) were determined by fitting the experimental binding isotherms with the ‘one set of sites’ fitting model and GraphPad Prism software (version 9) was used to plot the results.

[4] = tested on: 3D10 MAb binding to recombinant VAR2CSA (FCR3); assay: Competition ELISA of 3D10 with VAR2CSA as capture antigen; set-up: species or system mouse; conditions: 3D10 (8.6 µg/ml) pre-incubated 1 h RT with 10 µg/ml competing peptide; VAR2CSA coated 1 µg/ml; 3 independent experiments
Description: as §1, with “The positive control pool refers to the OD of a pool of Colombian or Ugandan samples that were seroreactive against the peptides or VAR2CSA, respectively. The background is the OD with secondary antibody alone. The cut-off for seropositivity was based on the mean AU of sera from 12 individual Colombians not exposed to malaria plus 2 standard deviations; data to generate the cut-off are from two independent experiments. Only sera that were above the cut-off for VAR2CSA seropositivity were screened against CRP1 and SD1CLIPS.” left out

[5] = tested on: rat-CRP1 antibodies (sera of CRP1-BSA immunized rats); assay: Indirect ELISA, reactivity of rat anti-CRP1 sera against peptides; assay type: binding; conditions: peptide coated 5 µg/ml, rat sera 1/100 dilution
Description: as §1, with “The positive control pool refers to the OD of a pool of Colombian or Ugandan samples that were seroreactive against the peptides or VAR2CSA, respectively. The background is the OD with secondary antibody alone. The cut-off for seropositivity was based on the mean AU of sera from 12 individual Colombians not exposed to malaria plus 2 standard deviations; data to generate the cut-off are from two independent experiments. Only sera that were above the cut-off for VAR2CSA seropositivity were screened against CRP1 and SD1CLIPS.” left out

[6] = tested on: 3D10 MAb binding to SD1CLIPS; assay: Competition ELISA of 3D10 with SD1CLIPS as capture antigen; set-up: species or system mouse; conditions: 3D10 (1.72 µg/ml) pre-incubated 1 h RT with 10 µg/ml competing peptide; SD1CLIPS coated 1 µg/ml; compared with negative control peptide P10; 3 independent experiments

Substance	3D10 recognition of peptide by ELISA [2]	Binding to CSA by ITC [3]	Recognition of peptide by rat-CRP1 antibodies (ELISA) [5]	other results
chondroitin sulfate A [Soluble CSA]	–	–	–	Percent inhibition of IE binding to CSA [1]: over 90%
KAYISEKKQEWDKQKTKYENKYVGKSASDLLKEN [CRP1-K1510A]	partially reduced binding	–	–	–
KKYISEKKQEWDKQKTKYENKYVGKSASDLLKEN [CRP1]	recognizes	heat release after each CSA injection, consistent with CSA binding to CRP1	recognized	Binding to CSA by ITC in the presence of 100 mM NaCl ([3]; 50 µM peptide, 1 mM CSA, in the presence of 100 mM NaCl): abrogated; Competition for 3D10 binding to VAR2CSA [4]: same binding inhibition toward VAR2CSA as compared to SD1CLIPS; 3D10 recognition of peptide by ELISA compared with SD1CLIPS ([2]; both peptides coated at 1 µg/ml, titration of 3D10): substantially weaker; Competition for 3D10 binding to SD1CLIPS [6]: significant loss in SD1CLIPS recognition
KQIWLKSKSKNKTEEKGKDYYQKEKYKANLEVSD [Scrambled CRP1 peptide, scrambled version of CRP1, reference compound]	poorly recognized	also bound to CSA	did not recognize	–
KKYISEKKQEWDAQKTAYENAYVGKSASDLLKEN [CRP1-AAA]	completely abolished antibody recognition	–	–	–
